Measured values taken from patent US12358910B2, “Heteroaromatic compounds as Vanin inhibitors” (Boehringer Ingelheim International GmbH, priority 2018, dated 2025).

Assays:
Pantetheinase (vanin) = test: Human Whole Blood assay (vanin activity by pantothenic acid formation); type: cell-based; conditions: pantethine substrate, 5 min reaction at room temperature, geometric mean in case of multiple measurements, read-out: HWB IC50
Experimental: Human Whole Blood assay: Pantetheinase (vanin) converts panteheine into pantothenic acid and cysteamine. Accordingly, in the described protocol vanin activity is quantified by formation of pantothenic acid after pantetheine supplementation via pantethine. The assay is applicable to identify vanin inhibitors. Compound stocks are dissolved in DMSO at 10 mM. Further dilutions are performed in RPMI 1640 medium (Gibco, #A-10491-01) and final concentrations in the assay are 0.032 nM-500 nM.
Human blood is drawn into a blood bag (1% heparin, 50 I.E./mL). Blood is aliquoted into cavities of 96-deep-well plates at 290 μL and mixed with 10 μL compound solution or vehicle (30 sec at 1400 rpm on a shaker). Equilibration follows at room temperature, 250 rpm and for 30 min. The assay is started by adding 10 μL of substrate solution (2 μM pantethine in 1 mM DTT, 0.0025% Brij-35, 50 mM HEPES, pH7.5) to each well, except for some blank wells which receive […] substrate buffer (1 mM DTT, 0.0025% Brij-35, 50 mM HEPES, pH7.5) only. Samples are thoroughly shaken (30 sec, 1400 rpm) and reaction is allowed to take place at room temperature, 250 rpm and for 5 min. The reaction is stopped by addition of a vanin tool inhibitor in excess (BI-1 total conc. 10 μM). Centrifugation of the plate follows at 4° C., 665 G for 10 min. Then the blood plasma samples (100 μL) are transferred into another 96-deep-well plate and proteins are precipitated (5 min on ice) by adding 100 μL of ice cold precipitation solution (1 μM labelled pantothenic acid (di-β-alanine-13C6,15N2 calcium salt, Sigma, #705837) in acetonitrile).
Afterwards the plate is centrifuged (4° C., 3220 G, 10 min) and supernatants (50 μL) are collected into another 96-deep-well plate and mixed (10 sec, 1400 rpm) with 150 μL ice cold formic acid (0.1%, Carl Roth GmbH+Co.KG, #CP03.1). The formation of pantothenic acid is detected by RapidFire Mass Spectrometry. A TripleQuad 6500+(ABSciex, Germany) is equipped with an LC-1290 system, a RapidFire autosampler (Agilent, Germany) and a C18 cartridge Type C 12 μL (Agilent Cat #G9526-80000). Mobile phase A is consisting of 0.09% formic acid and 0.01% trifluoroacetic acid in water and mobile phase B of 0.09% formic acid and 0.01% trifluoroacetic acid in acetonitrile/methanol/water=47.5/47.5/5.

[1] = target: T1, FLAG-tagged Vanin-1 (AA 22-493, T26I) (Homo sapiens, UniProt O95497, T26I); test: Vanin-1 enzymatic assay (pantothenic acid formation, RapidFire mass spectrometry); type: biochemical; conditions: 0.1 nM FLAG-tagged Vanin-1, 3 μM D-pantethine, room temperature; geometric mean in case of multiple measurements; read-out: VNN-1 IC50
T1 construct: FLAG-tagged Vanin-1 (AA 22-493, T26I, produced internally); FLAG; made in house
T1 sequence (O95497 22-493 T26I): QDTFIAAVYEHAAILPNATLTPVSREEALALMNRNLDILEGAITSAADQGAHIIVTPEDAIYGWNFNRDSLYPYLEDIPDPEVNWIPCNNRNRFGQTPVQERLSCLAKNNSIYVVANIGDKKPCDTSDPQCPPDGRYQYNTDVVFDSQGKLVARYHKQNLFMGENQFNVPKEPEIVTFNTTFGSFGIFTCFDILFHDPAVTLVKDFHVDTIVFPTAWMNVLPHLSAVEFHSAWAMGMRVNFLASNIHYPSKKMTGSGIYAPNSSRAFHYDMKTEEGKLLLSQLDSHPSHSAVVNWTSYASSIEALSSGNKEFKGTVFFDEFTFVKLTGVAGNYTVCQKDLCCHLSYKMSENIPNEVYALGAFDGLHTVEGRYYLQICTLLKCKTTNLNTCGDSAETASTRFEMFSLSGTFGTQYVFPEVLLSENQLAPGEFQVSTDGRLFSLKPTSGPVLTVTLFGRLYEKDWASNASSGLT
Experimental: Description of Biological Properties Vanin-1 Enzymatic Assay:
The test compounds are dissolved in 100% DMSO at a concentration of 10 mM and in a first step diluted in DMSO to a concentration of 5 mM, followed by serial dilution steps in 100% DMSO. Dilution factor and number of dilution steps may vary according to needs. Typically 8 different concentrations by 1:5 dilutions are prepared, a further intermediate dilutions of the substances is carried out with assay buffer resulting in 1% final DMSO concentration in the assay.
0.1 nM of FLAG-tagged Vanin-1 (AA 22-493, T26I, produced internally) and test compounds are incubated at room temperature for 20 minutes in assay buffer (1 mM DTT, 0.0025% Brij-35, 50 mM HEPES, pH7.5). D-Pantethine (Sigma, Cat #P2125-5G) in assay buffer is added (final concentration 3 μM) and incubated for additional 30 minutes at room temperature. Total assay volume typically is 40 μl but might be adjusted according to needs. Reaction is stopped by adding equal volume of stop solution as the reaction mixture to reach 100 nM HD-pantothenic acid (as an internal standard) and 1% TFA. Assay plates are centrifuged for 2 minutes and the formation of pantothenic acid is detected by RapidFire Mass Spectrometry (mobile phase A: 0.1% formic acid and 0.01% trifluoroacetic acid in water; mobile phase B: 47.5% acetonitrile, 47.5% methanol, 0.1% formic acid and 0.01% trifluoroacetic acid in water) using a C18, 12 μL cartridge (Agilent Cat #G9205A).
The values given in Table I result from measurements of one or more samples. In case of multiple measurements the geometric mean values are given.

Row | IC50 (Pantetheinase (vanin)) | IC50 [1] | SMILES
1 | 3.49 nM | 0.24 nM | O=C(c1ccc(NCc2cnc3ccccn23)nc1)N1CC[C@H](N2CCOC2=O)C1 [Example 1.1, 3-[(3S)-1-{6-[({Imidazo[1,2-a]pyridin-3-yl}methyl)amino]pyridine-3-carbonyl}pyrrolidin-3-yl]-1,3-oxazolidin-2-one]
2 | 1.94 nM | 0.09 nM | C[C@H](Nc1ccc(C(=O)N2CC[C@H](N(C)C(=O)C3CC3)C2)cn1)c1cnc2[nH]ccc2c1 [Example 1.2]
3 | 3.05 nM | 0.1 nM | C[C@H](Nc1ccc(C(=O)N2CC[C@H](N(C)C(=O)C3(C#N)CC3)C2)cn1)c1cnc2[nH]ccc2c1 [Example 1.3]
4 | 2.07 nM | 0.1 nM | C[C@H](Nc1ccc(C(=O)N2CC[C@H](N(C)C(=O)C3CCC3)C2)cn1)c1cnc2[nH]ccc2c1 [Example 1.4]
5 | 1.58 nM | 0.11 nM | C[C@H](Nc1ccc(C(=O)N2CC[C@H](N(C)C(=O)C3CCC3)C2)cn1)c1cnc2[nH]ccc2c1 [Example 1.5]
6 | 6.38 nM | 0.12 nM | C[C@H](Nc1ccc(C(=O)N2CC[C@H](N(C)C(=O)C3CC(F)(F)C3)C2)cn1)c1cnc2[nH]ccc2c1 [Example 1.6]
7 | 1.7 nM | 0.13 nM | C[C@H](Nc1ccc(C(=O)N2CC[C@H](N(C)C(=O)C3(C#N)CC3)C2)cn1)c1cnc2[nH]ccc2c1 [Example 1.7]
8 | – | 0.14 nM | C[C@H](Nc1ccc(C(=O)N2CC[C@H](N(C)C(=O)C3(C)CCC3)C2)cn1)c1cnc2[nH]ccc2c1 [Example 1.8]
9 | 2.78 nM | 0.16 nM | C[C@H](Nc1ccc(C(=O)N2CC[C@H](N(C)C(=O)C3CC(F)(F)C3)C2)cn1)c1cnc2[nH]ccc2c1 [Example 1.10]
10 | – | 0.2 nM | C[C@H](Nc1ccc(C(=O)N2CC[C@H](N(C)C(=O)C3(C)CCC3)C2)cn1)c1cnc2[nH]ccc2c1 [Example 1.11]
11 | 1.48 nM | 0.1 nM | CN(C(=O)C1CC(F)(F)C1)[C@H]1CCN(C(=O)c2ccc(NCc3cnc4ccccn34)nc2)C1 [Example 1.12]
12 | 3.03 nM | 0.15 nM | CN(C(=O)C1(C#N)CC1)[C@H]1CCN(C(=O)c2ccc(NCc3cnc4ccccn34)nc2)C1 [Example 1.13]
13 | 2.59 nM | 0.18 nM | CN(C(=O)C1(C)CCC1)[C@H]1CCN(C(=O)c2ccc(NCc3cnc4ccccn34)nc2)C1 [Example 1.14]
14 | 4.82 nM | 0.19 nM | O=C(c1ccc(NCc2cnc3ccccn23)nc1)N1CC[C@H](N2CCCC2=O)C1 [Example 1.15]
15 | – | 0.14 nM | CC(=O)N(C)[C@H]1CCN(C(=O)c2ccc(N[C@@H](C)c3cccc4ccccc34)nc2)C1 [Example 2.2]
16 | – | 0.21 nM | CC(=O)N(C)[C@H]1CCN(C(=O)c2ccc(NCc3csc4ccc(Cl)cc34)nc2)C1 [Example 2.3]
17 | – | 0.67 nM | CC(=O)N(C)[C@H]1CCN(C(=O)c2ccc(NCc3cccc4c3ccn4C)nc2)C1 [Example 2.5]
18 | – | 2.05 nM | CC(=O)N(C)[C@H]1CCN(C(=O)c2ccc(NCc3cc4ccccc4s3)nc2)C1 [Example 2.6]
19 | – | 0.13 nM | CC(=O)N(C)[C@H]1CCN(C(=O)c2ccc(NCc3cc(Br)cc4[nH]ncc34)nc2)C1 [Example 5.5]
20 | – | 0.21 nM | CC(=O)N(C)[C@H]1CCN(C(=O)c2ccc(NCc3cnc4ccccc4c3)nc2)C1 [Example 5.11]

Row | IC50 (Pantetheinase (vanin)) | IC50 [1] | SMILES
21 | – | 0.64 nM | CC(=O)N(C)[C@H]1CCN(C(=O)c2ccc(NCc3ccc4[nH]ccc4c3)nc2)C1 [Example 5.17]
22 | – | 0.69 nM | CC(=O)N(C)[C@H]1CCN(C(=O)c2ccc(NCc3ccc4nc(N)[nH]c4c3)nc2)C1 [Example 5.18]
23 | – | 0.76 nM | CC(=O)N(C)[C@H]1CCN(C(=O)c2ccc(N[C@@H](C)c3nc4cc(Cl)c(F)cc4[nH]3)nc2)C1 [Example 5.20]
24 | – | 1.43 nM | CC(=O)N(C)[C@H]1CCN(C(=O)c2ccc(N[C@H](C)c3cccc4c3cnn4C)nc2)C1 [Example 5.25]
25 | – | 1.62 nM | CC(=O)N(C)[C@H]1CCN(C(=O)c2ccc(NCc3ccc4ncccc4c3)nc2)C1 [Example 5.26]
26 | – | 2.25 nM | CC(=O)N(C)[C@H]1CCN(C(=O)c2ccc(N[C@H](C)c3cccc4nn(C)cc34)nc2)C1 [Example 5.27]
27 | – | 2.65 nM | CC(=O)N(C)[C@H]1CCN(C(=O)c2ccc(NCc3n[nH]c4c3CCCC4)nc2)C1 [Example 5.28]
28 | – | 2.74 nM | CC(=O)N(C)[C@H]1CCN(C(=O)c2ccc(NCc3cnn4cccnc34)nc2)C1 [Example 5.29]
29 | – | 3.02 nM | CC(=O)N(C)[C@H]1CCN(C(=O)c2ccc(NCc3cccc4cccnc34)nc2)C1 [Example 5.30]
30 | – | 4.62 nM | CC(=O)N(C)[C@H]1CCN(C(=O)c2ccc(NCc3nc4ccccc4s3)nc2)C1 [Example 5.31]
31 | – | 9.06 nM | CC(=O)N(C)[C@H]1CCN(C(=O)c2ccc(N[C@H](C)c3ccc4c(cnn4C)c3)nc2)C1 [Example 5.32]
32 | – | 9.33 nM | CC(=O)N(C)[C@H]1CCN(C(=O)c2ccc(NCc3cc4ccccc4[nH]3)nc2)C1 [Example 5.33]
33 | – | 9.43 nM | CC(=O)N(C)[C@H]1CCN(C(=O)c2ccc(NCc3ccc4onc(N)c4c3)nc2)C1 [Example 5.34]
34 | – | 0.24 nM | CC(=O)N(C)[C@H]1CCN(C(=O)c2ccc(N[C@@H](C)c3ccc4c(cnn4C)c3)nc2)C1 [Example 5.37]
35 | – | 0.14 nM | CC(=O)N(C)[C@H]1CCN(C(=O)c2ccc(NCc3cc(C)cc4[nH]ncc34)nc2)C1 [Example 6.1, N-Methyl-N-[(3S)-1-(6-{[(6-methyl-1H-indazol-4-yl)methyl]amino}pyridine-3-carbonyl)pyrrolidin-3-yl]acetamide]
36 | – | 0.2 nM | O=C(c1ccc(NCc2csc3ccccc23)nc1)N1CC[C@H](N2CCOC2=O)C1 [Example 8.1, 3-[(3S)-1-(6-{[(1-Benzothiophen-3-yl)methyl]amino}pyridine-3-carbonyl)pyrrolidin-3-yl]-13-oxazolidin-2-one]
37 | – | 0.21 nM | O=C(c1ccc(NCc2csc3ccccc23)nc1)N1CC[C@H](N2CCCC2=O)C1 [Example 8.2]
38 | – | 0.26 nM | CN(C(=O)C1CCC1)[C@H]1CCN(C(=O)c2ccc(NCc3csc4ccccc34)nc2)C1 [Example 9.1, N-[(3S)-1-(6-{[(1-Benzothiophen-3-yl)methyl]amino}pyridine-3-carbonyl)pyrrolidin-3-yl]-N-methylcyclobutanecarboxamide]
39 | – | 1.14 nM | CC1(C#N)CCN(C(=O)c2ccc(NCc3csc4ccccc34)nc2)C1 (stereo not drawn) [Example 9.2]
